# Laboratory results as given in article PMC7827406, “Structure–Activity Relationship (SAR) Study of Spautin-1 to Entail the Discovery of Novel NEK4 Inhibitors” (International Journal of Molecular Sciences, 2021).
# Where two headings read alike, the source gives them in different places.
# How the values were obtained:
# Assay in all cases: biochemical
# Design in all cases: Eurofins KinaseProfiler full panel at Km ATP, residual kinase activity (%) relative to DMSO
# DYRK3(h) = target: T1, DYRK3(h) (Homo sapiens, UniProt O43781)
# T1 sequence (O43781 1-588): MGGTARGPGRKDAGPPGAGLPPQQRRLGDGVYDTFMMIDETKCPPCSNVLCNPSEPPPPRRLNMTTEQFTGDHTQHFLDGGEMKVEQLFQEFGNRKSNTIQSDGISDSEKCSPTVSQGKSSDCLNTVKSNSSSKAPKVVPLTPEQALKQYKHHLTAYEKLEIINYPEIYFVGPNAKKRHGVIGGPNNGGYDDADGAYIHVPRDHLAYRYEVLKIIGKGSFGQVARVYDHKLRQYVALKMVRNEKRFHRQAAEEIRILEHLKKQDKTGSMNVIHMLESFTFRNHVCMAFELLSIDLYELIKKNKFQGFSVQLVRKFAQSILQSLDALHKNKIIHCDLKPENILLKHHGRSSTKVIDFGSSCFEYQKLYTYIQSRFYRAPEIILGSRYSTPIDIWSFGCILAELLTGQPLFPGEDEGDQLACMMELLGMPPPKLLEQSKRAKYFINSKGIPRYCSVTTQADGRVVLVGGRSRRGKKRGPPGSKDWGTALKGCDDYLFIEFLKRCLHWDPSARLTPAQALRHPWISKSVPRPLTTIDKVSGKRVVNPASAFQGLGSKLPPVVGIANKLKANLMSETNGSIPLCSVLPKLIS
# How it was run: (§1)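 Compounds screened at 10 µM in radiometric kinase activity assays at Km ATP, reported as remaining kinase activity (%). A KINOMEscan competition-binding screen at 10 µM measured DNA-tagged kinase retained on immobilized active-site ligand by qPCR.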
# EphA5(h) = EphA5(h) (Homo sapiens, UniProt P54756)
# How it was run: as §1
# NDR2(h) = target: T2, NDR2(h) (Homo sapiens, UniProt Q9Y2H1)
# T2 construct: gene STK38L
# How it was run: as §1
# PRAK(h) = target: T3, PRAK(h) (Homo sapiens, UniProt Q8IW41)
# T3 construct: gene MAPKAPK5
# T3 sequence (Q8IW41 1-473): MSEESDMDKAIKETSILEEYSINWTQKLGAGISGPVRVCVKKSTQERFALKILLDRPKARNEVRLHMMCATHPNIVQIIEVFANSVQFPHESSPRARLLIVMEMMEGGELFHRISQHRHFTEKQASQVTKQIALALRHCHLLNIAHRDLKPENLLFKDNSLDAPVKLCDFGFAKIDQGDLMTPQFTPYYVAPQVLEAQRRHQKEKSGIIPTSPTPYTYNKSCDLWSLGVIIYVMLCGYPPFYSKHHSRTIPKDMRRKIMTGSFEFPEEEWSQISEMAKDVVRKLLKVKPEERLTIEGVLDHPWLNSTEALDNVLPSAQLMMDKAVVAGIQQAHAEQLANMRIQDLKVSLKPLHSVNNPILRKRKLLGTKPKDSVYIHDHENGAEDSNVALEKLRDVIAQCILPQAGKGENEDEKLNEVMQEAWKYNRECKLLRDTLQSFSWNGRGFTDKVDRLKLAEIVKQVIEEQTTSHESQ
# How it was run: as §1
# SAPK4(h) = target: T4, SAPK4(h) (Homo sapiens, UniProt O15264)
# T4 construct: gene MAPK13
# T4 sequence (O15264 1-365): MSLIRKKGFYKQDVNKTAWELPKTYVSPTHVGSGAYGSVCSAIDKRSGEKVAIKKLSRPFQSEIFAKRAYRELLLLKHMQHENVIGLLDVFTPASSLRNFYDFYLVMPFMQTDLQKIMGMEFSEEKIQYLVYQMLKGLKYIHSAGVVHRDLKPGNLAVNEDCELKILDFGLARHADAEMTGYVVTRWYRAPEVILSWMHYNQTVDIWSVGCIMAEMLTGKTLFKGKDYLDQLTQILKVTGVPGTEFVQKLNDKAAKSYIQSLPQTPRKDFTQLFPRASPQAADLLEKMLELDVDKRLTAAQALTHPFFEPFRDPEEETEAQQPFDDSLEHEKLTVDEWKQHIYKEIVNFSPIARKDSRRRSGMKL
# How it was run: as §1
# TSSK1(h) = target: T5, TSSK1(h) (Homo sapiens, UniProt Q9BXA7)
# T5 construct: gene TSSK1B
# T5 sequence (Q9BXA7 1-367): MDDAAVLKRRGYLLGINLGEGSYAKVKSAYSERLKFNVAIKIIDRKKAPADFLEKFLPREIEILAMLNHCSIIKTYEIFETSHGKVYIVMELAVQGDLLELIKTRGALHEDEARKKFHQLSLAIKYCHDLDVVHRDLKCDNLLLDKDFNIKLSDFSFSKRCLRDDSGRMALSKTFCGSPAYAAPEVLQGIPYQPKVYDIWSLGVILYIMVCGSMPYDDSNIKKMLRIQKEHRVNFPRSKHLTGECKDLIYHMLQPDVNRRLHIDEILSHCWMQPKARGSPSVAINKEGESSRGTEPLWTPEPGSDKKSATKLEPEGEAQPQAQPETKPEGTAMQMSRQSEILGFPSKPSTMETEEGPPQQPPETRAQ
# How it was run: as §1
# Tie2(Y897S)(h) = target: T6, Tie2(Y897S)(h) (Homo sapiens, UniProt Q02763, Y897S)
# T6 construct: gene TEK
# How it was run: as §1
# cKit(h) = target: T7, cKit(h) (Homo sapiens, UniProt P10721)
# T7 construct: gene KIT
# How it was run: as §1
# [1] = read-out: Residual activity (%) 5ay
# [2] = read-out: Residual activity (%) Spautin-1 5aa
# [3] = read-out: Residual activity (%) 5at
# [4] = read-out: Residual activity (%) 5as
# T2 sequence (Q9Y2H1 whole entry): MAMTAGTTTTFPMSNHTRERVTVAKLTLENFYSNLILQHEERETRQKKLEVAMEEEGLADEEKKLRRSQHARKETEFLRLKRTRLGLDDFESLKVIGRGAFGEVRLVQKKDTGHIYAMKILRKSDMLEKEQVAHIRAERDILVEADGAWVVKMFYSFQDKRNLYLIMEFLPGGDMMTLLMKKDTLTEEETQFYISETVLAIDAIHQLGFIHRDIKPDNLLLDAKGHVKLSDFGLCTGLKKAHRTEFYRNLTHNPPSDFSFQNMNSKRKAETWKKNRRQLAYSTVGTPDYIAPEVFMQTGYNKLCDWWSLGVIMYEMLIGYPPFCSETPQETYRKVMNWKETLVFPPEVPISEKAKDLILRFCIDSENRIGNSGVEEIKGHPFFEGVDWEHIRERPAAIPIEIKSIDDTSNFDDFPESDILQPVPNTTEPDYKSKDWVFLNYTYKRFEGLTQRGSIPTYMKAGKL
# Chain of EphA5(h) (P54756 whole entry): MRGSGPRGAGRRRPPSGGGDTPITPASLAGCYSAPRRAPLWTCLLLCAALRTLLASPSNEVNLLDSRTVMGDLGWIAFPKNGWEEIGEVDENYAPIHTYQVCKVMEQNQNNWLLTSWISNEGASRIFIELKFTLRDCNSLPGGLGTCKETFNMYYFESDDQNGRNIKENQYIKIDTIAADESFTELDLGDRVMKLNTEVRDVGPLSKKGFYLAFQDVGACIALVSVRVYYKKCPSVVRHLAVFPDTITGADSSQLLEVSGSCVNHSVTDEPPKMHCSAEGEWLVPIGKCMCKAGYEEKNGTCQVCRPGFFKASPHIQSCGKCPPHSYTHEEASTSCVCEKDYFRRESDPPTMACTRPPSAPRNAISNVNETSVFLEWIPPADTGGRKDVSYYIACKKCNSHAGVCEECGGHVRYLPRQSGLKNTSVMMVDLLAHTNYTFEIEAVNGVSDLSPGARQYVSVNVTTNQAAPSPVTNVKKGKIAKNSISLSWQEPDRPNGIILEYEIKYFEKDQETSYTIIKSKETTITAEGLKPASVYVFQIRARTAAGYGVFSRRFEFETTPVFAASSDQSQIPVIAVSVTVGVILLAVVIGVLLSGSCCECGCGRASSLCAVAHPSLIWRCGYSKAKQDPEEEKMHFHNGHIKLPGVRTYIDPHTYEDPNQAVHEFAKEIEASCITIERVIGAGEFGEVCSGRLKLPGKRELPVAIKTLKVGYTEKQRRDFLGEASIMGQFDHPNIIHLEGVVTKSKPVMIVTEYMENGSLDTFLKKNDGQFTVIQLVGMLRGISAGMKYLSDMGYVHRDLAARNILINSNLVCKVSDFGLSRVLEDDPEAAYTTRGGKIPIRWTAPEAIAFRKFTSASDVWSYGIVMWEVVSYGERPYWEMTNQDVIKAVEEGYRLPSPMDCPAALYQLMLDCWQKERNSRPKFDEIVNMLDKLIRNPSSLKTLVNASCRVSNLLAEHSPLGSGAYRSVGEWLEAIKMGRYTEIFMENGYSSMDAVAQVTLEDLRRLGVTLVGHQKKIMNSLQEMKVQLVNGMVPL
# T7 sequence (P10721 whole entry): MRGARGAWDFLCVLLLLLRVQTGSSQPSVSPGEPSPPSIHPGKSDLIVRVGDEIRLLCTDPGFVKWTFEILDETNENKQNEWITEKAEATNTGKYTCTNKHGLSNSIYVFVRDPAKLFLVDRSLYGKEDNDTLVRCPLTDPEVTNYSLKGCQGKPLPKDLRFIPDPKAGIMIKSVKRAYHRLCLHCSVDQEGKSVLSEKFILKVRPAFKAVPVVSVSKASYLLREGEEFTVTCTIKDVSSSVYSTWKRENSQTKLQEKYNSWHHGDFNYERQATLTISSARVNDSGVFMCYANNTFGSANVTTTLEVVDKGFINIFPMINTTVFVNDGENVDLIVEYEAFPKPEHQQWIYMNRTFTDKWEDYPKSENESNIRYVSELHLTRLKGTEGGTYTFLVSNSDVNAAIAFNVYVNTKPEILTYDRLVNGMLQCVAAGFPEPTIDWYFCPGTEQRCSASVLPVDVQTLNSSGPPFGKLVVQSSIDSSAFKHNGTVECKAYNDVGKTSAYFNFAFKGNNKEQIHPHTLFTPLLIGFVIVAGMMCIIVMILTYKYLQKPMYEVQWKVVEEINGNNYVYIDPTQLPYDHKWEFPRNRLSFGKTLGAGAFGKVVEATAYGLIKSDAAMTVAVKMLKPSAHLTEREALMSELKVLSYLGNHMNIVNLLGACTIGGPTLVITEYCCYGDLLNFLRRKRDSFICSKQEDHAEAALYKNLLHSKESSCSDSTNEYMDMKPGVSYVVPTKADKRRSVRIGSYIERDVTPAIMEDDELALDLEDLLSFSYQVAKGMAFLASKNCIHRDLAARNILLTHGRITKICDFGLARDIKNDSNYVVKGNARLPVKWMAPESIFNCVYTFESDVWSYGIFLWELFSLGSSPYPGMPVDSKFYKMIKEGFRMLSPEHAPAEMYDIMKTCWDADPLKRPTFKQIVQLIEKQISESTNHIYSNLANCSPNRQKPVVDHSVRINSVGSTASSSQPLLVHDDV
# T6 sequence (Q02763 whole entry Y897S): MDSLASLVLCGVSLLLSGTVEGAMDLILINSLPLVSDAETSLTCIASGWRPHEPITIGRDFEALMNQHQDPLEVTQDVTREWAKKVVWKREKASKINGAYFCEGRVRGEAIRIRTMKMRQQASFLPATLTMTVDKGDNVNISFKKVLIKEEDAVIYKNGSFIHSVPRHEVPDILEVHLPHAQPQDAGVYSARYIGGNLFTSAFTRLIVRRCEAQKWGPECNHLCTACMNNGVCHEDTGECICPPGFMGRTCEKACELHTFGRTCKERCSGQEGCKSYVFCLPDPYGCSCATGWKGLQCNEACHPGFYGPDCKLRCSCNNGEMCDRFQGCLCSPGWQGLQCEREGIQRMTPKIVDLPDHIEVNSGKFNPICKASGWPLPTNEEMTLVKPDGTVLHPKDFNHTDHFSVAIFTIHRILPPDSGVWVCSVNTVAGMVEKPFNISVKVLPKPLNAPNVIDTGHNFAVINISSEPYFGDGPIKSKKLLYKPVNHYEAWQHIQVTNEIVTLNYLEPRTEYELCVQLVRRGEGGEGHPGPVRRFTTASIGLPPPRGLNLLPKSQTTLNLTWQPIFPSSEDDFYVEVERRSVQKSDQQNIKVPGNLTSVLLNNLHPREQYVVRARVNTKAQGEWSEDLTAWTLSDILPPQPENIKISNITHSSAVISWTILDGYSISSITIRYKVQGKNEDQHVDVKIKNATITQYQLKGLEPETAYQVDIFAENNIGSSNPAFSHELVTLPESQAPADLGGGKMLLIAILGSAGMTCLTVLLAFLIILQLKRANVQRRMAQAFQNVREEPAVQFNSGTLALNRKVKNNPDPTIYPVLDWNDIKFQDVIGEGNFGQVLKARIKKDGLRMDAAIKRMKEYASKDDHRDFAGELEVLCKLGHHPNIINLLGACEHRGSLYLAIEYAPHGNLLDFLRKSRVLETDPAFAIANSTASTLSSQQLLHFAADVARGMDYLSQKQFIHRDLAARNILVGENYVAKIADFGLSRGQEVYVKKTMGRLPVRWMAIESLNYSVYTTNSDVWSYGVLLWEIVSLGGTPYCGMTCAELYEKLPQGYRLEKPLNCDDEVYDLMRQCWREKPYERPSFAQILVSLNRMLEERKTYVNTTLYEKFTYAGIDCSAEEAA
compound,measurement,setting,value
"COc1ccc2ncnc(Nc3cccc(F)c3)c2c1 [5ay, N-(3-Fluorophenyl)-6-Methoxy-4-Quinazolinamine]",remaining activity at 10 µM,DYRK3(h); [1],57%
same,remaining activity at 10 µM,EphA5(h); [1],95%
same,remaining activity at 10 µM,NDR2(h); [1],103%
same,remaining activity at 10 µM,PRAK(h); [1],102%
same,remaining activity at 10 µM,SAPK4(h); [1],105%
same,remaining activity at 10 µM,TSSK1(h); [1],81%
same,remaining activity at 10 µM,Tie2(Y897S)(h); [1],78%
same,remaining activity at 10 µM,cKit(h); [1],83%
"Fc1ccc(CNc2ncnc3ccc(F)cc23)cc1 [5aa, 6-Fluoro-N-(4-fluorobenzyl)-4-Quinazolinamine]",remaining activity at 10 µM,DYRK3(h); [2],117%
same,remaining activity at 10 µM,EphA5(h); [2],90%
same,remaining activity at 10 µM,NDR2(h); [2],120%
same,remaining activity at 10 µM,PRAK(h); [2],107%
same,remaining activity at 10 µM,SAPK4(h); [2],97%
same,remaining activity at 10 µM,TSSK1(h); [2],82%
same,remaining activity at 10 µM,Tie2(Y897S)(h); [2],88%
same,remaining activity at 10 µM,cKit(h); [2],93%
"Fc1ccc2ncnc(NCCc3ccc(Cl)cc3)c2c1 [5at, N-[2-(4-Chlorophenyl)Ethyl]-6-Fluoro-4-Quinazolinamine]",remaining activity at 10 µM,DYRK3(h); [3],98%
same,remaining activity at 10 µM,EphA5(h); [3],87%
same,remaining activity at 10 µM,NDR2(h); [3],115%
same,remaining activity at 10 µM,PRAK(h); [3],91%
same,remaining activity at 10 µM,SAPK4(h); [3],92%
same,remaining activity at 10 µM,TSSK1(h); [3],77%
same,remaining activity at 10 µM,Tie2(Y897S)(h); [3],85%
same,remaining activity at 10 µM,cKit(h); [3],71%
"Fc1ccc(CCNc2ncnc3ccc(F)cc23)cc1 [5as, 6-Fluoro-N-[2-(4-Fluorophenyl)Ethyl]-4-Quinazolinamine]",remaining activity at 10 µM,DYRK3(h); [4],98%
same,remaining activity at 10 µM,EphA5(h); [4],99%
same,remaining activity at 10 µM,NDR2(h); [4],99%
same,remaining activity at 10 µM,PRAK(h); [4],108%
same,remaining activity at 10 µM,SAPK4(h); [4],105%
same,remaining activity at 10 µM,TSSK1(h); [4],82%
same,remaining activity at 10 µM,Tie2(Y897S)(h); [4],94%
same,remaining activity at 10 µM,cKit(h); [4],78%
